{
  "source": "patent US11950596B2",
  "about": "“Methods of protecting seeds from oxidants and microorganisms” (The United States of America, as represented by the …, priority 2020, dated 2024)",
  "key": {"[1]": {"tested_on": "A. flavus 3357", "assay": "Antifungal seed disinfection bioassay (OG plus mild heat), A. flavus infection of cabbage seeds", "type": "in vivo, Aspergillus flavus", "details": "for No. of seedlings infected: 12 seeds; for % A. flavus infection: mean over 20/50° C. and 20/30 min", "method": "(§1) Antifungal seed disinfection bioassays using OG: Effect of OG plus mild heat hurdle technology on the level of seed sanitation (Brassica rapa Pekinensis; Chinese cabbage hybrid) was evaluated. Twelve cabbage seeds (per treatment), unsterilized, were transferred to each 1.5 mL microcentrifuge tube filled with 1 mL (final volume) distilled water, without or with A. flavus (1×10^5 CFU/mL): (1) No OG, no A. flavus inoculum, 20 or 30 min, 20° C.; (2) No OG, no A. flavus inoculum, 20 or 30 min, 50° C.; (3) No OG, w/A. flavus, 20 or 30 min, 20° C.; (4) No OG, w/A. flavus, 20 or 30 min, 50° C.; (5) OG 2 mM, w/A. flavus, 20 or 30 min, 20° C., (6) OG 2 mM, w/A. flavus, 20 or 30 min, 50° C., (7) OG 3 mM, w/A. flavus, 20 or 30 min, 20° C.; (8) OG 3 mM, w/A. flavus, 20 or 30 min, 50° C.; (9) OG 4 mM, w/A. flavus, 20 or 30 min, 20° C.; and (10) OG 4 mM, w/A. flavus, 20 or 30 min, 50° C. After each treatment, the treated seeds (total 12 seeds per treatment) were transferred to PDA and the plates were incubated in the dark at room temperature (RT; 20° C.) for seed germination. After seed germination, the growth of seedlings and fungal germination on the surfaces of germinated seeds were monitored up to 7 days (RT).\n(§2) Seed disinfection via heat-sensitizing activity of OG: Heat-sensitizing capacity of OG was investigated further with crop seeds (Brassica rapa Pekinensis; Chinese cabbage hybrid) contaminated with A. flavus 3357 on the seed surfaces. OG (0, 2, 3, 4 mM) and mild heat (50° C.; Control: 20° C.) were co-applied for 20 to 30 minutes, and the rates of seed germination were also determined."}, "[2]": {"tested_on": "P. griseofulvum 2159", "assay": "Heat-sensitizing bioassay of OG (MFC) in other fungi", "type": "cell-based, Penicillium griseofulvum", "details": "90 seconds", "method": "(§3) As described in A. flavus 3357 test (see above), microfuge tubes were treated with mild heat (57.5° C.) or maintained at RT (22.0° C.) (90 seconds). After heat treatments, entire volume (200 μL) from each microfuge tube was spread onto fresh recovery LB agar (for bacteria) or PDA (for fungi), and plates were incubated at the optimum temperature for respective microorganisms (i.e., 35° C. for Aspergillus, 37° C. for E. coli, 28° C. for Penicillium/A. tumefaciens, respectively). The growth/survival of test microorganisms were monitored after 48 to 72 hrs of incubation.\nHeat-sensitizing activity of OG against other fungi: Heat-sensitizing activity of OG was then investigated in other fungi (five Aspergillus strains and seven Penicillium strains) including fungicide resistant strains (i.e., P. expansum FR2, FR3 resistant to the conventional fungicide fludioxonil) (see Table 1)."}, "[3]": {"tested_on": "E. coli JM109", "assay": "Heat-sensitizing bioassay of OG (MBC) in bacteria", "type": "cell-based", "details": "Escherichia coli, 90 seconds, read-out: minimum bactericidal concentration (MBC) of OG", "method": "as §3\nHeat-sensitizing activity of OG against bacteria (A. tumefaciens, E. coli): Heat-sensitizing activity of OG was also investigated against bacterial cells (i.e., E. coli and plant-pathogenic A. tumefaciens). […] (Table 4; FIG. 2)."}, "[4]": {"tested_on": "Brassica rapa Pekinensis seeds", "assay": "Seed disinfection bioassay, germination of treated cabbage seeds", "type": "in vivo", "details": "for No. of seedlings germinated: 12 seeds; for % Seed germination: mean over 20/50° C. and 20/30 min", "method": "as §1, §2"}, "[5]": {"details": "OG as low as 3 mM, mild heat 50° C., 20 min"}},
  "note": "Like-named read-outs stand apart in the source and are kept apart here. Marks after values point to notes of the source that are not given here.",
  "data": [
    {"smiles": "CCCCCCCCOC(=O)c1cc(O)c(O)c(O)c1", "note": "[Octyl gallate]", "values": [
      {"measurement": "No. of seedlings infected", "setting": "[1]; OG 2 mM, 20° C., 20 min", "value": 12},
      {"measurement": "No. of seedlings infected", "setting": "[1]; OG 2 mM, 20° C., 30 min", "value": 10},
      {"measurement": "No. of seedlings infected", "setting": "[1]; OG 2 mM, 50° C., 20 min", "value": 4},
      {"measurement": "No. of seedlings infected", "setting": "[1]; OG 2 mM, 50° C., 30 min", "value": 1},
      {"measurement": "% A. flavus infection", "setting": "[1]; OG 2 mM", "value": "57 ± 43", "unit": "%"},
      {"measurement": "No. of seedlings infected", "setting": "[1]; OG 3 mM, 20° C., 20 min", "value": 10},
      {"measurement": "No. of seedlings infected", "setting": "[1]; OG 3 mM, 20° C., 30 min", "value": 10},
      {"measurement": "No. of seedlings infected", "setting": "[1]; OG 3 mM, 50° C., 20 min", "value": "0^d"},
      {"measurement": "No. of seedlings infected", "setting": "[1]; OG 3 mM, 50° C., 30 min", "value": "0^d"},
      {"measurement": "% A. flavus infection", "setting": "[1]; OG 3 mM", "value": "42 ± 48", "unit": "%"},
      {"measurement": "growth of A. flavus contaminated on crop seeds", "setting": "[1]; OG 3 mM, mild heat 50° C., 20 to 30 minutes", "value": "completely inhibited"},
      {"measurement": "No. of seedlings infected", "setting": "[1]; OG 4 mM, 20° C., 20 min", "value": 12},
      {"measurement": "No. of seedlings infected", "setting": "[1]; OG 4 mM, 20° C., 30 min", "value": 11},
      {"measurement": "No. of seedlings infected", "setting": "[1]; OG 4 mM, 50° C., 20 min", "value": "0^d"},
      {"measurement": "No. of seedlings infected", "setting": "[1]; OG 4 mM, 50° C., 30 min", "value": "0^d"},
      {"measurement": "% A. flavus infection", "setting": "[1]; OG 4 mM", "value": "48 ± 56", "unit": "%"},
      {"measurement": "growth of A. flavus on crop seeds", "setting": "[1]; [5]", "value": "completely inhibited"},
      {"measurement": "MFC", "setting": "[2]; Penicillium griseofulvum, 2159, 22.0° C.", "value": "> 300", "unit": "µM"},
      {"measurement": "MFC", "setting": "[2]; Penicillium griseofulvum, 2159, 57.5° C.", "value": 180, "unit": "µM"},
      {"measurement": "MBC", "setting": "[3]; JM109, 22° C.", "value": 300, "unit": "µM"},
      {"measurement": "MBC", "setting": "[3]; JM109, 57.5° C.", "value": 75, "unit": "µM"},
      {"measurement": "No. of seedlings germinated", "setting": "[4]; OG 2 mM, 20° C., 20 min", "value": 12},
      {"measurement": "No. of seedlings germinated", "setting": "[4]; OG 2 mM, 20° C., 30 min", "value": 12},
      {"measurement": "No. of seedlings germinated", "setting": "[4]; OG 2 mM, 50° C., 20 min", "value": 12},
      {"measurement": "No. of seedlings germinated", "setting": "[4]; OG 2 mM, 50° C., 30 min", "value": 10},
      {"measurement": "% Seed germination", "setting": "[4]; OG 2 mM", "value": "96 ± 8", "unit": "%"},
      {"measurement": "No. of seedlings germinated", "setting": "[4]; OG 3 mM, 20° C., 20 min", "value": 12},
      {"measurement": "No. of seedlings germinated", "setting": "[4]; OG 3 mM, 20° C., 30 min", "value": 12},
      {"measurement": "No. of seedlings germinated", "setting": "[4]; OG 3 mM, 50° C., 20 min", "value": 12},
      {"measurement": "No. of seedlings germinated", "setting": "[4]; OG 3 mM, 50° C., 30 min", "value": 11},
      {"measurement": "% Seed germination", "setting": "[4]; OG 3 mM", "value": "98 ± 4", "unit": "%"},
      {"measurement": "No. of seedlings germinated", "setting": "[4]; OG 4 mM, 20° C., 20 min", "value": 12},
      {"measurement": "No. of seedlings germinated", "setting": "[4]; OG 4 mM, 20° C., 30 min", "value": 12},
      {"measurement": "No. of seedlings germinated", "setting": "[4]; OG 4 mM, 50° C., 20 min", "value": 11},
      {"measurement": "No. of seedlings germinated", "setting": "[4]; OG 4 mM, 50° C., 30 min", "value": 11},
      {"measurement": "% Seed germination", "setting": "[4]; OG 4 mM", "value": "96 ± 5", "unit": "%"},
      {"measurement": "germination rate of the crop seeds compared to the control", "setting": "[4]; [5]", "value": "not affected"}
    ]}
  ]
}
